Results: patent US20180169045A1, “AMINO ACID COMPOSITIONS AND METHODS FOR THE TREATMENT OF LIVER DISEASES” (AXCELLA HEALTH INC., priority 2016, published 2018)

What was measured:
Assay type in all cases: cell-based
[1] = tested on: Primary human hepatic stellate cells; assay: TNFα-induced MCP-1 secretion in primary human hepatic stellate cells (ELISA); conditions: for MCP-1 chemokine secretion, in words: primary human hepatic stellate cells from two donors, 3 ng/mL TNFα, 12 h
Experimental: (§1) Primary human hepatic stellate cells were obtained from Samsara Sciences based on the following criteria for selecting donors: adult age (between 18 and 50 years), normal BMI (>18.5 and <25), and absence of confounding liver disease. Primary human hepatic stellate cells grown in Complete HSC Medium to ˜80% confluence in T75 or T150 flasks below passage 10 were seeded into sterile, collagen I coated, 96-well optical plastic microplates (ThermoScientific, 152036) at 4000 cells per well ([…]) and incubated for 6 hours at 37° C., 5% CO2 in a humidified incubator.
(§2) After 6 hours, plates were removed from the incubator and the medium gently pipetted off and washed once with 150 μL per well DPBS. The DPBS was removed and the pretreatment medium (±single amino acid dropout, 1×HMDB DMEM+3% dialyzed FBS+0.2% Primocin, ±supplemental amino acid dose; see experiment for medium composition) was applied to the cells at 150 μL per well. Plates were returned to the incubator overnight, ˜14-15 hours.
(§3) After overnight pretreatment, the medium was removed from the cells, and the same pretreatment medium, now supplemented with 3 ng/mL TNFα is applied. Each plate contained 3 ng/mL TNFα in 1× human plasma amino acid (HMDB or PAA) concentration medium, 0 ng/mL in 1×HMDB, and 3 ng/mL TNFα+50 nM Bengamide in 1×HMDB to serve as controls. Plates were incubated for 12 hours at 37° C., 5% CO2.
(§4) After 12 hour stimulus with TNFα, supernatant was removed and frozen at −80° C. in two separate aliquots. Plates were washed gently once with DPBS and 100 μL per well of 1×HMDB DMEM+3% dialyzed FBS+0.2% Primocin+10% CCK-8 viability reagent (Dojindo). Plates were incubated for 1 hour at 37° C., 5% CO2.
(§5) After 1 hour of incubation, viability was measured on the Synergy plate reader (Absorbance at 977 (test), 900 (reference), and 450 (CCK8) nm). Immediately, the medium was removed and the plates were fixed with 70 μL per well 4% paraformaldehyde in PBS at room temperature for 20 minutes, followed by two 150 μL PBS washes, and stored with 100 μL per well PBS at 4° C. until immunofluorescence staining.
(§6) Human CCL2/MCP1 and Human IL-6 were measured by ELISA (Human […] DuoSet ELISA, R&D Systems; Human IL-6 DuoSet ELISA, R&D Systems) at 1/5 and 1/20 dilution in 1× Reagent Diluent (Reagent Ancillary Kit 2, R&D Systems). Data were normalized to the specific per well cell density determined by Hoechst stained nuclei count.

[2] = tested on: Primary human hepatic stellate cells; assay: TNFα-induced IL-6 secretion in primary human hepatic stellate cells (ELISA); conditions: for IL-6 cytokine secretion, in words: primary human hepatic stellate cells from two donors, 3 ng/mL TNFα, 12 h
Experimental: as §1, §2, §3, §4, §5, §6

[3] = tested on: Primary human PMBC derived macrophages; assay: LPS-induced TNFa secretion in primary human monocyte-derived macrophages (ELISA); set-up: TNFa Measurements Mean (baseline subtracted): unit not given beside the values; conditions: for TNFa Measurements Mean (baseline subtracted): Donor 1, LPS 0.15 ng/mL; for LPS-induced TNFa secretion, in words: primary human monocyte-derived macrophages
Experimental: Isolation of Peripheral Blood Mononuclear Cell (PBMC) Unpurified buffy coats (Research Blood Components) were carefully poured into 50 mL centrifuge tubes and diluted with room temperature Dulbecco's Phosphate Buffered Saline (dPBS) with Calcium and Magnesium (Gibco). Diluted buffy coats were further divided into four total 50 mL centrifuge tubes at 20 mL per tube. Lymphocyte Separation Medium (Corning) was carefully pipetted to the bottom of each centrifuge tube. Mixtures were centrifuged at 850×g for 32 minutes at 20° C. with 0 deceleration and acceleration.
CD14+ cells were selected using EasySep™ Human CD14 Positive Selection Kit II ([…] Technologies). Cells were resuspended in cold EasySep™ Buffer ([…] Technologies) at 1×10^8 cells/mL. A total of 100 uL/mL EasySep™ Human CD14 Positive Selection Cocktail II was added to the cell suspension, mixed, and incubated at room temperature for 10 minutes. A total of 100 uL/mL RapidSpheres were added to the mixture and incubated at room temperature for 3 minutes after mixing, then RoboSep buffer was added to bring up the total volume to 10 mL. The mixture in a 15 mL tube was placed in magnet and incubated at room temperature for 3 minutes. Supernatant was discarded and 10 mL fresh EasySep™ buffer was added to 15 mL tube. The addition of RoboSep buffer, mixing, and discarding of supernatant was repeated two more times.
Negative and positive fractions were centrifuged at 490×g for 5 minutes at 20° C. with acceleration of 9, deceleration of 9, and resuspended in DMEM (Gibco) and 10% Heat Inactivated Fetal Bovine Serum (Atlanta Bio) and Penicillin/Streptomycin. Cells were counted and centrifuged again at 490×g for 5 minutes at 20° C. with acceleration of 9, deceleration of 9. After centrifugation, cell were resuspended in DMEM (Gibco) and 10% Heat Inactivated Fetal Bovine Serum (Atlanta Bio) and Penicillin/Streptomycin containing 500 U/mL […] and plated at 1-2×10^6 cells/mL on 10 cm tissue culture plates. Cells were kept in 37° C., 5% CO2 in between feedings/harvest.
Cells were fed every 3-4 days by removing media and unattached cells, centrifuging at 490×g for 5 minutes at 20 C with acceleration of 9, deceleration of 9, and resuspending in fresh DMEM (Gibco) and 10% Heat Inactivated Fetal Bovine Serum (Atlanta Bio) and Penicillin/Streptomycincontaining 500 U/mL GM-CSF. Resuspended cells were seeded back onto 10 cm tissue culture plates and incubated at 37° C., 5% CO2.
After complete cell attachment, culture supernatant was removed and cultures were washed 1× with 5 mL PBS. A total of 3 mL room temperature Cellstripper was added and cultures were incubated at 37° C., 5% CO2 for approximately 10 minutes until cells were rounded and beginning to detach. Cell scraper was used to completely detach cells from plate. Collected cell were spun down at 490 g for 5 min at room temperature and resuspended in 10% DMSO in Heat Inactivated Fetal Bovine Serum and immediately frozen in −80 C.
Primary human PMBC derived macrophages were seeded on day 0 at 3.0E4 cells per well in 96-well microplates (ThermoFisher) in Dulbecco's Modified Eagle Medium (DMEM) (Gibco) supplemented with penicillin-streptomycin (Hyclone) and 10% heat inactivated fetal bovine serum (HI-FBS) (Atlanta Bio) and incubated overnight at 37° C., 5% CO2. On day 1, cells were washed once with 150 uL per well DPBS (Gibco) and treated with 75 uL of: • a. Amino acid free DMEM (US Biologicals) containing a defined custom amino acid concentration based on the mean physiological concentrations in blood based on values published in the Human Metabolome Database (HMDB), with 6 mM glucose, 1 mM sodium pyruvate, 10 mM HEPES, 0.2% primocin (InVivoGen); or • b. The same medium described above with one amino acid at various concentrations including complete dropout. […]

**Q.** What does the source list for CC(=O)N[C@@H](CS)C(=O)O [N-acetylcysteine]?
**A.** Fold Change MCP1 Secretion Normalized Per Cell, Mean ([1]; donor 4, 1000 μM): 0.6437; Fold Change MCP1 Secretion Normalized Per Cell, Mean ([1]; donor 4, 2500 μM): 0.8033; Fold Change MCP1 Secretion Normalized Per Cell, Mean ([1]; donor 4, 5000 μM): 0.6728; Fold Change MCP1 Secretion Normalized Per Cell, Mean ([1]; donor 4, 10000 μM): 0.5011; Fold Change MCP1 Secretion Normalized Per Cell, Mean ([1]; donor 4, Conc. 5 X): 0.6437; Fold Change MCP1 Secretion Normalized Per Cell, Mean ([1]; donor 4, Conc. 10 X): 0.8033; Fold Change MCP1 Secretion Normalized Per Cell, Mean ([1]; donor 4, Conc. 20 X): 0.6728; Fold Change MCP1 Secretion Normalized Per Cell, Mean ([1]; donor 4, Conc. 40 X): 0.5011; MCP-1 chemokine secretion, in words [1]: significantly reduced MCP-1 secretion in both donors; Fold Change IL-6 Secretion Normalized Per Cell, Mean ([2]; donor 1, Conc. 1000 μM): 0.7141; Fold Change IL-6 Secretion Normalized Per Cell, Mean ([2]; donor 1, Conc. 2500 μM): 0.7354; Fold Change IL-6 Secretion Normalized Per Cell, Mean ([2]; donor 1, Conc. 5000 μM): 0.6121; Fold Change IL-6 Secretion Normalized Per Cell, Mean ([2]; donor 1, Conc. 10000 μM): 0.5716; Fold Change IL-6 Secretion Normalized Per Cell, Mean ([2]; donor 1, Conc. 5 X): 0.7141; Fold Change IL-6 Secretion Normalized Per Cell, Mean ([2]; donor 1, Conc. 10 X): 0.7354; Fold Change IL-6 Secretion Normalized Per Cell, Mean ([2]; donor 1, Conc. 20 X): 0.6121; Fold Change IL-6 Secretion Normalized Per Cell, Mean ([2]; donor 1, Conc. 40 X): 0.5716; Fold Change IL-6 Secretion Normalized Per Cell, Mean ([2]; donor 2, Conc. 1000 μM): 0.9161; Fold Change IL-6 Secretion Normalized Per Cell, Mean ([2]; donor 2, Conc. 2500 μM): 0.9180; Fold Change IL-6 Secretion Normalized Per Cell, Mean ([2]; donor 2, Conc. 5000 μM): 0.8111; Fold Change IL-6 Secretion Normalized Per Cell, Mean ([2]; donor 2, Conc. 10000 μM): 0.7064; Fold Change IL-6 Secretion Normalized Per Cell, Mean ([2]; donor 2, Conc. 5 X): 0.9161; Fold Change IL-6 Secretion Normalized Per Cell, Mean ([2]; donor 2, Conc. 10 X): 0.9180; Fold Change IL-6 Secretion Normalized Per Cell, Mean ([2]; donor 2, Conc. 20 X): 0.8111; Fold Change IL-6 Secretion Normalized Per Cell, Mean ([2]; donor 2, Conc. 40 X): 0.7064; IL-6 cytokine secretion, in words [2]: reduced IL-6 secretion in both donors but was only statistically significant in one of two donors; TNFa Measurements Mean (baseline subtracted) ([3]; Conc. 0 X (baseline)): 0; LPS-induced TNFa secretion, in words ([3]; Donor 1, 0.15 ng/mL LPS): significantly reduced; LPS-induced TNFa secretion, in words ([3]; Donor 2, 0.15 ng/mL LPS): significantly reduced; LPS-induced TNFa secretion, in words ([3]; Donor 3, 0.15 ng/mL LPS): significantly reduced

**Q.** Which results are given for CC(C)[C@H](N)C(=O)O [Valine, L-Valine]?
**A.** Fold Change MCP1 Secretion Normalized Per Cell, Mean ([1]; donor 3, 4684 μM): 1.0630; Fold Change MCP1 Secretion Normalized Per Cell, Mean ([1]; donor 3, 11710 μM): 1.0204; Fold Change MCP1 Secretion Normalized Per Cell, Mean ([1]; donor 3, 23420 μM): 1.2651; Fold Change MCP1 Secretion Normalized Per Cell, Mean ([1]; donor 4, 4684 μM): 1.0942; Fold Change MCP1 Secretion Normalized Per Cell, Mean ([1]; donor 4, 11710 μM): 1.1544; Fold Change MCP1 Secretion Normalized Per Cell, Mean ([1]; donor 4, 23420 μM): 1.1525; MCP-1 chemokine secretion, in words [1]: no significant impact; Fold Change IL-6 Secretion Normalized Per Cell, Mean ([2]; donor 1, Conc. 4684 μM): 0.9790; Fold Change IL-6 Secretion Normalized Per Cell, Mean ([2]; donor 1, Conc. 11710 μM): 0.9562; Fold Change IL-6 Secretion Normalized Per Cell, Mean ([2]; donor 1, Conc. 23420 μM): 1.0404; Fold Change IL-6 Secretion Normalized Per Cell, Mean ([2]; donor 2, Conc. 4684 μM): 1.0383; Fold Change IL-6 Secretion Normalized Per Cell, Mean ([2]; donor 2, Conc. 11710 μM): 0.9218; Fold Change IL-6 Secretion Normalized Per Cell, Mean ([2]; donor 2, Conc. 23420 μM): 0.9015; IL-6 cytokine secretion, in words [2]: no significant effect; TNFa Measurements Mean (baseline subtracted) ([3]; Conc. 234 μM (baseline)): 0
